A word on the IC50: it is the midpoint of a concentration-inhibition curve. Broadly, the EC50 is the concentration needed to bring the measured effect to its halfway point. Lower therefore signals greater potency.

One experiment concerns the target T1, HCV NS5B (Hepatitis C virus genotype 1b, UniProt Q9WMX2).
T1 construct: The protein was expressed with an 18 amino acid C-terminal truncation to enhance the solubility; made in house; host or cells: E. coli BL21(DE3)
Description: HCV NS5B RdRp enzyme assay (preincubation protocol). In kind it is biochemical. Particulars: HCV NS5B RdRp genotype 1b. As for the experimental part:
HCV NS5B RdRp cloning, expression, and purification. The cDNA encoding the NS5B protein of HCV, genotype 1b, was cloned into the pET21a expression vector. The protein was expressed with an 18 amino acid C-terminal truncation to enhance the solubility. The E. coli competent cell line BL21(DE3) was used for expression of the protein. Cultures were grown at 37° C. for ˜4 hours until the cultures reached an optical density of 2.0 at 600 nm. The cultures were cooled to 20° C. and induced with 1 mM IPTG. Fresh ampicillin was added to a final concentration of 50 μg/ml and the cells were grown overnight at 20° C.
Cell pellets (3 L) were lysed for purification to yield 15-24 mgs of purified NS5B. The lysis buffer consisted of 20 mM Tris-HCl, pH 7.4, 500 mM NaCl, 0.5% triton X-100, 1 mM DTT, 1 mM EDTA, 20% glycerol, 0.5 mg/ml lysozyme, 10 mM MgCl2, 15 ug/ml deoxyribonuclease I, and Complete TM protease inhibitor tablets (Roche). After addition of the lysis buffer, frozen cell pellets were resuspended using a tissue homogenizer. To reduce the viscosity of the sample, aliquots of the lysate were sonicated on ice using a microtip attached to a Branson sonicator. The sonicated lysate was centrifuged at 100,000×g for 1 hr at 4° C. and filtered through a 0.2 μm filter unit (Corning).
The protein was purified using three sequential chromatography steps: Heparin sepharose CL-6B, polyU sepharose 4B, and Hitrap SP sepharose (Pharmacia). The chromatography buffers were identical to the lysis buffer but contained no lysozyme, deoxyribonuclease I, MgCl2 or protease inhibitor and the NaCl concentration of the buffer was adjusted according to the requirements for charging the protein onto the column. Each column was eluted with a NaCl gradient which varied in length from 5-50 column volumes depending on the column type. After the final chromatography step, the resulting purity of the enzyme is >90% based on SDS-PAGE analysis. The enzyme was aliquoted and stored at −80° C.
Standard HCV NS5B RdRp enzyme assay. HCV RdRp genotype 1b assays were run in a final volume of 60 μl in 96 well plates (Costar 3912 H. The assay buffer is composed of 20 mM Hepes, pH 7.5, 2.5 mM KCl, 2.5 mM MgCl2, 1 mM DTT, 1.6 U RNAse inhibitor (Promega N2515), 0.1 mg/ml BSA (Promega R3961), and 2% glycerol. All compounds were serially diluted (3-fold) in DMSO and diluted further in water such that the final concentration of DMSO in the assay was 2%. HCV RdRp genotype 1b enzyme was used at a final concentration of 28 nM. A polyA template was used at 6 nM, and a biotinylated oligo-dT12 primer was used at 180 nM final concentration. Template was obtained commercially (Amersham 27-4110). Biotinylated primer was prepared by Sigma Genosys. 3H-UTP was used at 0.6 μCi (0.29 μM total UTP). Reactions were initiated by the addition of enzyme, incubated at 30° C. for 60 min, and stopped by adding 25 μl of 50 mM EDTA containing SPA beads (4 μg/μl, Amersham RPNQ 0007 H. Plates were read on a Packard Top Count NXT after >1 hr incubation at room temperature.
Modified HCV NS5B RdRp enzyme assay. A modified enzyme assay was performed essentially as described for the standard enzyme assay except for the following: The biotinylated oligo dT12 primer was precaptured on streptavidin-coated SPA beads by mixing primer and beads in assay buffer and incubating at room temperature for one hour. Unbound primer was removed after centrifugation. The primer-bound beads were resuspended in 20 mM Hepes buffer, pH 7.5 and used in the assay at final concentrations of 20 nM primer and 0.67 μg/μl beads. Order of addition in the assay: enzyme (14 nM) was added to diluted compound followed by the addition of a mixture of template (0.2 nM), 3H-UTP (0.6 μCi, 0.29 μM), and primer-bound beads, to initiate the reaction; concentrations given are final. Reactions were allowed to proceed for 4 hours at 30° C.
IC50 values for compounds were determined using seven different [I]. […]

In another experiment the test system is HCV replicon cells. Description: HCV replicon FRET assay. In kind it is cell-based. Particulars: Hepatitis C virus. From the text:
FRET Assay Preparation. To perform the HCV FRET screening assay, 96-well cell culture plates were used. The FRET peptide (Anaspec, Inc.) (Taliani et al., Anal Biochem. 1996, 240, 60-67) contains a fluorescence donor, EDANS, near one end of the peptide and an acceptor, DABCYL, near the other end. The fluorescence of the peptide is quenched by […] resonance energy transfer (RET) between the donor and the acceptor, but as the NS3 protease cleaves the peptide the products are released from RET quenching and the fluorescence of the donor becomes apparent. The assay reagent was made as follows: 5× cell Luciferase cell culture lysis reagent from Promega (#E153A) diluted to 1× with dH2O, NaCl added to 150 mM final, the FRET peptide diluted to 20 μM final from a 2 mM stock.
To prepare plates, HCV replicon cells, with or without a Renilla luciferase reporter gene, were trypsinized and placed into each well of a 96-well plate with titrated test compounds added in columns 3 through 12; columns 1 and 2 contained a control compound (HCV protease inhibitor), and the bottom row contained cells without compound. The plates were then placed in a CO2 incubator at 37° C.
Assays. Subsequent to addition of the test compounds described above (FRET Assay Preparation), at various times the plate was removed and Alamar blue solution (Trek Diagnostics, #00-100) was added per well as a measure of cellular toxicity. After reading in a Cytoflour 4000 instrument (PE Biosystems), plates were rinsed with PBS and then used for FRET assay by the addition of 30 ul of the FRET peptide assay reagent described above (FRET Assay Preparation) per well. The plate was then placed into the Cytoflour 4000 instrument which had been set to 340 excite/490 emission, automatic mode for 20 cycles and the plate read in a kinetic mode. Typically, the signal to noise using an endpoint analysis after the reads was at least three-fold. Alternatively, after Alamar blue reading, plates were rinsed with PBS, 50 ul of DMEM (high glucose) without phenol red was added and plates were then used for luciferase assay using the Promega Dual-Glo Luciferase Assay System.
Compound analysis was determined by quantification of the relative HCV replicon inhibition and the relative cytotoxicity values. To calculate cytoxicity values, the average Alamar Blue fluorescence signals from the control wells were set as 100% non-toxic. The individual signals in each of the compound test wells were then divided by the average control signal and multiplied by 100% to determine […]. To calculate the HCV replicon inhibition values, an average background value was obtained from the two wells containing the highest amount of HCV protease inhibitor at the end of the assay period. These numbers were similar to those obtained from naïve Huh-7 cells.
The background numbers were then subtracted from the average signal obtained from the control wells and this number was used as 100% activity. The individual signals in each of the compound test wells were then divided by the averaged control values after background subtraction and multiplied by 100% to determine percent activity. EC50 values for a protease inhibitor titration were calculated as the concentration which caused a 50% reduction in FRET or luciferase activity. The two numbers generated for the compound plate, percent cytoxicity and percent activity were used to determine compounds of interest for further analysis.
Background: Replicon systems follow genome replication, usually without infectious particles.

T1 sequence (Q9WMX2 2420-2992): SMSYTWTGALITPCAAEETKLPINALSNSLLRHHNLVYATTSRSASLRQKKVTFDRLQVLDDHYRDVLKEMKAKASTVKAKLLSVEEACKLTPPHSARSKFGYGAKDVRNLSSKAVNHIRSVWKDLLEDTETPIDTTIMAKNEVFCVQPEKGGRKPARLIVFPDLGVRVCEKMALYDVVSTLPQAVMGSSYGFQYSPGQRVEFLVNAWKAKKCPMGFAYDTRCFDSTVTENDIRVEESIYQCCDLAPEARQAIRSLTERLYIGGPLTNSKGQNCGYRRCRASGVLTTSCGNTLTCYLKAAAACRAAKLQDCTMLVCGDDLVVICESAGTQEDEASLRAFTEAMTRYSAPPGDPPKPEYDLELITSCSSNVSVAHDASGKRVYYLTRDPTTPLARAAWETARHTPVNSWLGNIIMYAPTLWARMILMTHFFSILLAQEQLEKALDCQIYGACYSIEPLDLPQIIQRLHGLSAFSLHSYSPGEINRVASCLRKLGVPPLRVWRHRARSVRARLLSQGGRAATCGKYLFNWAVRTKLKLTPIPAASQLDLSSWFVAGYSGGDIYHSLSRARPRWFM

Take `Cc1noc(C2=Cc3ccccc3-c3c(C4CCCCC4)c4ccc(C(=O)O)cc4n3C2)n1` [Example 24, 13-cyclohexyl-6-(3-methyl-1,2,4-oxadiazol-5-yl)-7H-indolo[2,1-a][2]benzazepine-10-carboxylic acid]: the IC50 on HCV NS5B was 1 to 500 nM. The half-maximal effective concentration (EC50) in the experiment on HCV replicon cells was over 500 nM.

With `Cc1noc(C2=Cc3ccccc3-c3c(C4CCCCC4)c4ccc(C(=O)NS(=O)(=O)N(C)C)cc4n3C2)n1` [Example 25, 13-cyclohexyl-N-[(dimethylamino)sulfonyl]-6-(3-methyl-1,2,4-oxadiazol-5-yl)-7H-indolo[2,1-a][2]benzazepine-10-carboxamide], at HCV NS5B, the concentration for half-maximal inhibition (IC50) lay within 1 to 500 nM. Also, the EC50 in the experiment with HCV replicon cells lay in the range of 1 to 500 nM.

`COC(=O)c1ccc2c(C3CCCCC3)c3n(c2c1)CC(c1nc(CS(C)(=O)=O)no1)=Cc1ccccc1-3` [Example 26, 13-cyclohexyl-6-[3-[(methylsulfonyl)methyl]-1,2,4-oxadiazol-5-yl-]7H-indolo[2,1-a][2]benzazepine-10-carboxylic acid, methyl ester]: the IC50 against HCV NS5B is over 500 nM. Also, the EC50 in the experiment with HCV replicon cells was over 500 nM.

Compound `CS(=O)(=O)Cc1noc(C2=Cc3ccccc3-c3c(C4CCCCC4)c4ccc(C(=O)O)cc4n3C2)n1` [Example 27, 13-cyclohexyl-6-[3-[(methylsulfonyl)methyl]-1,2,4-oxadiazol-5-yl]-7H-indolo[2,1-a][2]benzazepine-10-carboxylic acid] came in with a half-maximal inhibitory concentration (IC50) on HCV NS5B of 1 to 500 nM. In addition, the EC50 with HCV replicon cells was over 500 nM.

For `CN(C)S(=O)(=O)NC(=O)c1ccc2c(C3CCCCC3)c3n(c2c1)CC(c1nc(CS(C)(=O)=O)no1)=Cc1ccccc1-3` [Example 28, 13-cyclohexyl-N-[(dimethylamino)sulfonyl]-6-[3-[(methylsulfonyl)methyl]-1,2,4-oxadiazol-5-yl]-7H-indolo[2,1-a][2]benzazepine-10-carboxamide], the 50% inhibitory concentration (IC50) at HCV NS5B is 1 to 500 nM. This compound showed an EC50 with HCV replicon cells of over 500 nM.

`Nc1nnc(C2=Cc3ccccc3-c3c(C4CCCCC4)c4ccc(C(=O)O)cc4n3C2)o1` [Example 30, 6-(5-amino-1,3,4-oxadiazol-2-yl)-13-cyclohexyl-7H-indolo[2,1-a][2]benzazepine-10-carboxylic acid] registered a half-inhibitory concentration (IC50) against HCV NS5B of over 500 nM. Besides, the EC50 in the experiment with HCV replicon cells is over 500 nM.

As to `O=C(CN1CCOCC1)Nc1nnc(C2=Cc3ccccc3-c3c(C4CCCCC4)c4ccc(C(=O)O)cc4n3C2)o1` [Example 33, 13-cyclohexyl-6-[5-[(4-morpholinylacetyl)amino]-1,3,4-oxadiazol-2-yl]-7H-indolo[2,1-a][2]benzazepine-10-carboxylic acid], the concentration for half-maximal inhibition (IC50) against HCV NS5B is 1 to 500 nM. Also, the EC50 in the experiment with HCV replicon cells is over 500 nM.

In turn, `COC(=O)c1ccc2c(C3CCCCC3)c3n(c2c1)CC(c1ncc(CCC(=O)N2CCOCC2)o1)=Cc1ccccc1-3` [Example 35] returned a concentration for half-maximal inhibition (IC50) at HCV NS5B of over 500 nM. In addition, the EC50 in the experiment on HCV replicon cells is over 500 nM.

As to `O=C(O)c1ccc2c(C3CCCCC3)c3n(c2c1)CC(c1ncc(CCC(=O)N2CCOCC2)o1)=Cc1ccccc1-3` [Example 36, 13-cyclohexyl-6-[5-[3-(4-morpholinyl)-3-oxopropyl]-2-oxazolyl]-7H-indolo[2,1-a][2]benzazepine-10-carboxylic acid], the half-inhibitory concentration (IC50) on HCV NS5B is 1 to 500 nM. The same compound yielded an EC50 in the experiment on HCV replicon cells of over 500 nM.

For the compound `CN(C)S(=O)(=O)NC(=O)c1ccc2c(C3CCCCC3)c3n(c2c1)CC(c1ncc(CCC(=O)N2CCOCC2)o1)=Cc1ccccc1-3` [Example 37, 13-cyclohexyl-N-[(dimethylamino)sulfonyl]-6-[5-[3-(4-morpholinyl)-3-oxopropyl]-2-oxazolyl-]7H-indolo[2,1-a][2]benzazepine-10-carboxamide], at HCV NS5B, the IC50 lay within 1 to 500 nM. Besides, the EC50 in the experiment with HCV replicon cells lay within 1 to 500 nM.

As to `CN(C)S(=O)(=O)NC(=O)c1ccc2c(C3CCCCC3)c3n(c2c1)CC(c1ncc(CCC(=O)N2CCOCC2)o1)Cc1ccccc1-3` (stereo not shown) [Example 38, 13-cyclohexyl-N-[(dimethylamino)sulfonyl]-6,7-dihydro-6-[5-[3-(4-morpholinyl)-3-oxopropyl]-2-oxazolyl]-5H-indolo[2,1-a][2]benzazepine-10-carboxamide], the IC50 at HCV NS5B lay in the range of 1 to 500 nM. The compound also displayed a 50% effective concentration (EC50) in the experiment on HCV replicon cells of 1 to 500 nM.

Consider `COC(=O)c1ccc2c(C3CCCCC3)c3n(c2c1)CC(c1nnc(CC2CCOCC2)o1)=Cc1ccccc1-3` [Example 39, 13-cyclohexyl-6-[5-[(tetrahydro-2H-pyran-4-yl)methyl]-1,3,4-oxadiazol-2-yl]-7H-indolo[2,1-a][2]benzazepine-10-carboxylic acid, methyl ester], for which the concentration for half-maximal inhibition (IC50) at HCV NS5B was over 500 nM. In the experiment on HCV replicon cells, this compound came in with an EC50 of over 500 nM.

At HCV NS5B, `COC(=O)c1ccc2c(C3CCCCC3)c3n(c2c1)CC(c1n[nH]c(CC2CCOCC2)n1)=Cc1ccccc1-3` [Example 40, 13-cyclohexyl-6-[5-[(tetrahydro-2H-pyran-4-yl)methyl]-1H-1,2,4-triazol-3-yl]-7H-indolo[2,1-a][2]benzazepine-10-carboxylic acid, methyl ester] yielded an IC50 of over 500 nM. For the same compound, the concentration giving a half-maximal response (EC50) with HCV replicon cells was over 500 nM.

`COC(=O)c1ccc2c(C3CCCCC3)c3n(c2c1)CC(c1nc(CC2CCOCC2)n(C)n1)=Cc1ccccc1-3` [Example 41, 13-cyclohexyl-6-[1-methyl-5-[(tetrahydro-2H-pyran-4-yl)methyl]-1H-1,2,4-triazol-3-yl]-7H-indolo[2,1-a][2]benzazepine-10-carboxylic acid, methyl ester] came in with a 50% inhibitory concentration (IC50) against HCV NS5B of over 500 nM. In addition, the EC50 with HCV replicon cells was over 500 nM.

For the origin of these results see patent US7456165B2, “HCV NS5B inhibitors” (Bristol-Myers Squibb Company, priority 2006, dated 2008).
